Measurements reported in patent US20230365592A1 (Agios Pharmaceuticals, Inc., priority 2022, published 2023).

Molecular target: T1, human PAH with the R408W mutation (Homo sapiens, UniProt P00439, R408W)
T1 construct: expressed in transfected cells
T1 sequence (P00439 1-452 R408W): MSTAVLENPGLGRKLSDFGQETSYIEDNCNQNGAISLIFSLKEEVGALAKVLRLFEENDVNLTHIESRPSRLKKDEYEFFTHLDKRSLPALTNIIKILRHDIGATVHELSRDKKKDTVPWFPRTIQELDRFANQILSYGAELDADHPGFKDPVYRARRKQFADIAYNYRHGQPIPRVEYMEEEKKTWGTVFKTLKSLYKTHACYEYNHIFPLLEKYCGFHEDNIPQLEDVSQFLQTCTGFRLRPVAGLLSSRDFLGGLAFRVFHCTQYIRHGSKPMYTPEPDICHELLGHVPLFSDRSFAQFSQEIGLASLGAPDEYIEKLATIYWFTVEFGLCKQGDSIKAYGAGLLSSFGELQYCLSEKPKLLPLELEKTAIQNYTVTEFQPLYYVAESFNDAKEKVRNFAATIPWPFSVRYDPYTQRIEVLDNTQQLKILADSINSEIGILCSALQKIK
Experiment: Cell Based Phenylalanine Flux Assay;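 note: after compound treatment, cells received sepiapterin plus isotope-labelled Phenylalanine for 4 hours, then labelled Tyrosine in the medium was quantified, 10-point 2-fold dilution series run in duplicate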
Conditions: A375 cells expressing R408W PAH; 24 hrs with compound, then 20 µM sepiapterin and 800 µM 13C9,15N-Phenylalanine for 4 hours; 13C-Tyrosine by LC-MS; average where tested multiple times; read-out: AC50

AC50 [µM] | SMILES
> 5 | Cc1nc(C(=O)N2CCc3[nH]cnc3C2c2cc3cccc(C(F)(F)F)n3n2)n(C)n1 (stereo not shown) [listing 1 of 2 here]
> 5 | Cn1ccc(-c2nnc(C(=O)N3CCc4[nH]cnc4C3c3cc4cc(C(F)(F)F)ccn4n3)o2)n1 (stereo not shown) [listing 1 of 2 here]
1 to 5 | Cc1c(C2c3nc[nH]c3CCN2C(=O)c2nnc(-c3cnn(C)c3C)o2)nn2ccccc12 (stereo not shown)
> 5 | Cc1cccc2cc(C3c4nc[nH]c4CCN3C(=O)c3nnc(C4CC(F)(F)C4)o3)nn12 (stereo not shown) [listing 1 of 2 here]
> 5 | Cn1ccc(-c2nnc(C(=O)N3CCc4[nH]cnc4C3c3cc4c(OC(F)F)cccn4n3)o2)n1 (stereo not shown) [listing 1 of 2 here]
> 5 | COc1cccn2nc(C3c4nc[nH]c4CCN3C(=O)c3nnc(C)o3)cc12 (stereo not shown) [listing 1 of 2 here]
> 5 | O=C(c1nnc(C2CC(F)(F)C2)o1)N1CCc2[nH]cnc2C1c1cc2cccc(Cl)n2n1 (stereo not shown) [listing 1 of 2 here]
> 5 | O=C(c1nnc(-c2cnn(C(F)(F)F)c2)o1)N1CCc2[nH]cnc2C1c1cc2cccc(F)n2n1 (stereo not shown) [listing 1 of 2 here]
1 to 5 | Cc1nnc(C(=O)N2CCc3[nH]cnc3C2c2cc3cccc(F)n3n2)o1 (stereo not shown) [listing 1 of 2 here]
> 5 | O=C(c1nnc(-c2ncccn2)o1)N1CCc2[nH]cnc2C1c1cc2cccc(C(F)(F)F)n2n1 (stereo not shown) [listing 1 of 2 here]
1 to 5 | Cc1c(C2c3nc[nH]c3CCN2C(=O)c2nnc(C3CC3)o2)nn2ccccc12 (stereo not shown) [listing 1 of 2 here]
> 5 | Cc1cccc2cc(C3c4nc[nH]c4CCN3c3nnc(C4CC4)o3)nn12 (stereo not shown) [listing 1 of 2 here]
> 5 | O=C(c1cnn2cc(N3CCOCC3)ccc12)N1CCc2[nH]cnc2C1c1cc2ccccn2n1 (stereo not shown) [listing 1 of 2 here]
> 5 | O=C(c1cnco1)N1CCc2[nH]cnc2C1c1cc2cc(C(F)(F)F)ccn2n1 (stereo not shown) [listing 1 of 2 here]
> 5 | O=C(c1cnco1)N1CCc2[nH]cnc2C1c1cc2cccc(C(F)(F)F)n2n1 (stereo not shown) [listing 1 of 2 here]
1 to 5 | Cc1cccc2cc(C3c4nc[nH]c4CCN3C(=O)c3cnco3)nn12 (stereo not shown) [listing 1 of 2 here]
> 5 | Cc1nc(C(C)O)oc1C(=O)N1CCc2[nH]cnc2C1c1cc2cccc(Cl)n2n1 (stereo not shown) [listing 1 of 2 here]
1 to 5 | O=C(CCc1nccs1)N1CCc2[nH]cnc2C1c1cc2ccccn2n1 (stereo not shown)
1 to 5 | Cn1nc(C(F)(F)F)nc1C(=O)N1CCc2[nH]cnc2C1c1cc2cccc(C(F)(F)F)n2n1 (stereo not shown)
> 5 | CN1CCN(c2nnc(C(=O)N3CCc4[nH]cnc4C3c3cc4ccccn4n3)o2)CC1 (stereo not shown)
1 to 5 | Cn1cc(-c2ccc3c(C(=O)N4CCc5[nH]cnc5C4c4cc5ccccn5n4)cnn3c2)cn1 (stereo not shown)
1 to 5 | Cc1nc(C(=O)N2CCc3[nH]cnc3C2c2cc3cccc(C(F)(F)F)n3n2)n(C)n1 (stereo not shown) [listing 2 of 2 here]

AC50 [µM] | SMILES
1 to 5 | Cn1ccc(-c2nnc(C(=O)N3CCc4[nH]cnc4C3c3cc4cc(C(F)(F)F)ccn4n3)o2)n1 (stereo not shown) [listing 2 of 2 here]
1 to 5 | Cn1cc(-c2nnc(N3CCc4[nH]cnc4C3c3cc4ccccn4n3)o2)cn1 (stereo not shown)
1 to 5 | Cc1c(C2c3nc[nH]c3CCN2C(=O)c2nnc(C(C)(C)F)o2)nn2ccccc12 (stereo not shown)
1 to 5 | O=C(c1nnc(C2CC(F)(F)C2)o1)N1CCc2[nH]cnc2C1c1cc2cccc(C(F)F)n2n1 (stereo not shown)
1 to 5 | O=C(c1nnc(C2CC(F)(F)C2)o1)N1CCc2[nH]cnc2C1c1cc2cccc(C(F)(F)F)n2n1 (stereo not shown)
1 to 5 | Cc1cccc2cc(C3c4nc[nH]c4CCN3C(=O)c3nnc(C4CC(F)(F)C4)o3)nn12 (stereo not shown) [listing 2 of 2 here]
1 to 5 | Cn1ccc(-c2nnc(C(=O)N3CCc4[nH]cnc4C3c3cc4c(OC(F)F)cccn4n3)o2)n1 (stereo not shown) [listing 2 of 2 here]
1 to 5 | Cn1cnc(-c2nnc(C(=O)N3CCc4[nH]cnc4C3c3cc4c(C(F)F)cccn4n3)o2)c1 (stereo not shown)
> 5 | CC(C)c1nnc(C(=O)N2CCc3[nH]cnc3C2c2cc3c(C(F)F)cccn3n2)o1 (stereo not shown)
1 to 5 | Cn1cncc1-c1nnc(C(=O)N2CCc3[nH]cnc3C2c2cc3c(C(F)F)cccn3n2)o1 (stereo not shown)
1 to 5 | Fc1cccn2nc(C3c4nc[nH]c4CCN3c3nc4ccccc4o3)cc12 (stereo not shown)
1 to 5 | COc1cccn2nc(C3c4nc[nH]c4CCN3C(=O)c3nnc(C)o3)cc12 (stereo not shown) [listing 2 of 2 here]
1 to 5 | Cn1cncc1-c1nnc(C(=O)N2CCc3[nH]cnc3C2c2cc3cccc(C(F)F)n3n2)o1 (stereo not shown)
1 to 5 | O=C(c1nnc(C2CC(F)(F)C2)o1)N1CCc2[nH]cnc2C1c1cc2cccc(Cl)n2n1 (stereo not shown) [listing 2 of 2 here]
1 to 5 | Clc1cccc2cc(C3c4nc[nH]c4CCN3c3nnc(C4CC4)o3)nn12 (stereo not shown)
1 to 5 | O=C(c1nnc(-c2cnn(C(F)(F)F)c2)o1)N1CCc2[nH]cnc2C1c1cc2cccc(F)n2n1 (stereo not shown) [listing 2 of 2 here]
1 to 5 | Cc1nnc(C(=O)N2CCc3[nH]cnc3C2c2cc3cccc(F)n3n2)o1 (stereo not shown) [listing 2 of 2 here]
1 to 5 | Cc1nc(C(C)(C)O)oc1C(=O)N1CCc2[nH]cnc2C1c1cc2cccc(C(F)(F)F)n2n1 (stereo not shown)
1 to 5 | Cc1nc(C(C)(C)O)oc1C(=O)N1CCc2[nH]cnc2C1c1cc2cccc(C)n2n1 (stereo not shown)
1 to 5 | CC(C)(O)c1nnc(C(=O)N2CCc3[nH]cnc3C2c2cc3c(C(F)F)cccn3n2)o1 (stereo not shown)
1 to 5 | FC(F)c1cccn2nc(C3c4[nH]cnc4CCN3c3nnc(-c4ccccn4)o3)cc12 (stereo not shown)
> 5 | CC(C)(O)c1nnc(C(=O)N2CCc3[nH]cnc3C2c2cc3cc(C(F)(F)F)ccn3n2)o1 (stereo not shown)

AC50 [µM] | SMILES
1 to 5 | Cc1ccc2cc(C3c4nc[nH]c4CCN3C(=O)c3nnc(C(C)(C)O)o3)nn2c1 (stereo not shown)
1 to 5 | CC(C)(O)c1nnc(C(=O)N2CCc3[nH]cnc3C2c2cc3cccc(C(F)F)n3n2)o1 (stereo not shown)
1 to 5 | CC(C)(O)c1ncc(C(=O)N2CCc3[nH]cnc3C2c2cc3cccc(C(F)(F)F)n3n2)o1 (stereo not shown)
1 to 5 | O=C(c1nnc(-c2ncccn2)o1)N1CCc2[nH]cnc2C1c1cc2cccc(C(F)(F)F)n2n1 (stereo not shown) [listing 2 of 2 here]
1 to 5 | Fc1cccc2cc(C3c4nc[nH]c4CCN3c3nnc(-c4ccccn4)o3)nn12 (stereo not shown)
1 to 5 | O=C(c1nnc(-c2ncccn2)o1)N1CCc2[nH]cnc2C1c1cc2cccc(F)n2n1 (stereo not shown)
1 to 5 | O=C(c1nnc(-c2ncccn2)o1)N1CCc2[nH]cnc2C1c1cc2ccccn2n1 (stereo not shown)
> 5 | O=C(c1nnc(-c2ccccn2)o1)N1CCCc2[nH]cnc2C1c1cc2ccccn2n1 (stereo not shown)
1 to 5 | CC(C)c1nnc(C(=O)N2CCc3[nH]cnc3C2c2cc3cccc(C(F)(F)F)n3n2)o1 (stereo not shown)
1 to 5 | Cc1c(C2c3nc[nH]c3CCN2C(=O)c2nnc(C3CC3)o2)nn2ccccc12 (stereo not shown) [listing 2 of 2 here]
1 to 5 | FC(F)c1cccc2cc(C3c4nc[nH]c4CCN3c3nnc(C4CC4)o3)nn12 (stereo not shown)
1 to 5 | Fc1cccc2cc(C3c4nc[nH]c4CCN3c3nnc(C4CC4)o3)nn12 (stereo not shown)
1 to 5 | Cc1cccc2cc(C3c4nc[nH]c4CCN3c3nnc(C4CC4)o3)nn12 (stereo not shown) [listing 2 of 2 here]
1 to 5 | Cc1nnc(C(=O)N2CCc3[nH]cnc3C2c2cc3cc(C(F)(F)F)ccn3n2)o1 (stereo not shown)
1 to 5 | Cc1ccc2cc(C3c4nc[nH]c4CCN3C(=O)c3nnc(C)o3)nn2c1 (stereo not shown)
1 to 5 | Cc1nnc(N2CCc3[nH]cnc3C2c2cc3ccccn3n2)o1 (stereo not shown)
1 to 5 | Cc1c(C2c3nc[nH]c3CCN2C(=O)c2nnc(C(C)(C)C)o2)nn2ccccc12 (stereo not shown)
1 to 5 | CC(C)(C)c1nnc(C(=O)N2CCc3[nH]cnc3C2c2cc3cc(C(F)(F)F)ccn3n2)o1 (stereo not shown)
1 to 5 | Cn1nc(C(F)F)nc1C(=O)N1CCc2[nH]cnc2C1c1cc2cccc(C(F)(F)F)n2n1 (stereo not shown)
1 to 5 | O=C(c1cnn2cc(N3CCOCC3)ccc12)N1CCc2[nH]cnc2C1c1cc2ccccn2n1 (stereo not shown) [listing 2 of 2 here]
1 to 5 | Cc1cccc2cc(C3c4nc[nH]c4CCN3C(=O)c3cnn4ccccc34)nn12 (stereo not shown)
1 to 5 | O=C(c1nnc(N2CCC(F)CC2)o1)N1CCc2[nH]cnc2C1c1cc2ccccn2n1 (stereo not shown)

AC50 [µM] | SMILES
1 to 5 | Cc1c(C2c3nc[nH]c3CCN2C(=O)c2cnco2)nn2ccccc12 (stereo not shown)
1 to 5 | CN(C)C(=O)c1nnc(N2CCc3[nH]cnc3C2c2cc3c(F)cccn3n2)o1 (stereo not shown)
1 to 5 | O=C(c1cnco1)N1CCc2[nH]cnc2C1c1cc2cc(C(F)(F)F)ccn2n1 (stereo not shown) [listing 2 of 2 here]
1 to 5 | O=C(c1cnco1)N1CCc2[nH]cnc2C1c1cc2cc(F)ccn2n1 (stereo not shown)
1 to 5 | O=C(c1cnco1)N1CCc2[nH]cnc2C1c1cc2ccc(C(F)(F)F)cn2n1 (stereo not shown)
1 to 5 | O=C(c1cnco1)N1CCc2[nH]cnc2C1c1cc2cccc(C(F)(F)F)n2n1 (stereo not shown) [listing 2 of 2 here]
> 5 | Cc1nc(C(=O)N2CCc3[nH]cnc3C2c2cc3cccc(Cl)n3n2)n(C)n1 (stereo not shown)
1 to 5 | O=C(c1cnco1)N1CCc2[nH]cnc2C1c1cc2cccc(Cl)n2n1 (stereo not shown)
1 to 5 | Cn1nc(C2CC2)nc1C(=O)N1CCc2[nH]cnc2C1c1cc2cccc(Cl)n2n1 (stereo not shown)
1 to 5 | Cc1cccc2cc(C3c4nc[nH]c4CCN3C(=O)c3cnco3)nn12 (stereo not shown) [listing 2 of 2 here]
1 to 5 | COCc1ccc2c(C(=O)N3CCc4[nH]cnc4C3c3cc4cccc(C(F)(F)F)n4n3)cnn2c1 (stereo not shown)
1 to 5 | O=C(C1CC1(F)F)N1CCc2[nH]cnc2C1c1cc2ccccn2n1 (stereo not shown)
1 to 5 | O=C(c1cnn2ccccc12)N1CCc2[nH]cnc2C1c1cc2cccc(C(F)(F)F)n2n1 (stereo not shown)
1 to 5 | Cc1cccn2nc(C3c4nc[nH]c4CCN3c3nnc(C(=O)N(C)C)o3)cc12 (stereo not shown)
1 to 5 | CN(C)C(=O)c1nnc(N2CCc3[nH]cnc3C2c2cc3ccccn3n2)o1 (stereo not shown)
1 to 5 | Cc1nc(C(C)O)oc1C(=O)N1CCc2[nH]cnc2C1c1cc2cccc(C(F)(F)F)n2n1 (stereo not shown)
1 to 5 | Cc1nc(C(C)O)oc1C(=O)N1CCc2[nH]cnc2C1c1cc2cccc(C)n2n1 (stereo not shown)
1 to 5 | Cc1nc(C(C)O)oc1C(=O)N1CCc2[nH]cnc2C1c1cc2cccc(Cl)n2n1 (stereo not shown) [listing 2 of 2 here]
1 to 5 | CC(O)c1nnc(C(=O)N2CCc3[nH]cnc3C2c2cc3ccccn3n2)o1 (stereo not shown)
1 to 5 | CN(C)Cc1ccc2c(C(=O)N3CCc4[nH]cnc4C3c3cc4c(C(F)F)cccn4n3)cnn2c1 (stereo not shown)
1 to 5 | CN(C)Cc1ccc2c(C(=O)N3CCc4[nH]cnc4C3c3cc4c(F)cccn4n3)cnn2c1 (stereo not shown)
1 to 5 | CN(C)Cc1ccc2c(C(=O)N3CCc4[nH]cnc4C3c3cc4cccc(C(F)(F)F)n4n3)cnn2c1 (stereo not shown)
